Laboratory results as given in patent publication US20260234115A1, “LIPID COMPOUNDS, COMPOSITIONS, AND USES THEREOF” (Liberate Bio, Inc., priority 2023, published 2026).
Marks after values point to notes of the source that are not given here.

Tested on: mouse organs
Assay: In vivo activity screening in mice: organ mean total flux (p/s) of luciferase activity after injection of F2 LNP pools (Table 6, FIG. 7A-7C)
Conditions: luciferase mRNA
In short: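 C57BL/6J mice given one tail-vein injection of pooled Formulation F2 LNPs carrying firefly luciferase mRNA (0.25-3 mg/kg) in PBS. At 4-6 h, s.c. D-luciferin given; organs imaged ex vivo by IVIS within 10-15 min, after saline cardiac perfusion. Mean total flux (p/s) per organ ROI.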

| Compound | Organ Mean Total Flux Femur (Mouse 11, dose 0.5 mg/kg) | Organ Mean Total Flux Heart (Mouse 11, dose 0.5 mg/kg) | Organ Mean Total Flux Kidney (Mouse 11, dose 0.5 mg/kg) | Organ Mean Total Flux Liver (Mouse 11, dose 0.5 mg/kg) | Organ Mean Total Flux Lung (Mouse 11, dose 0.5 mg/kg) | Organ Mean Total Flux Muscle (Mouse 11, dose 0.5 mg/kg) | Organ Mean Total Flux Pancreas (Mouse 11, dose 0.5 mg/kg) | Organ Mean Total Flux Spleen (Mouse 11, dose 0.5 mg/kg) | Organ Mean Total Flux Femur (Mouse 12, dose 0.5 mg/kg) | Organ Mean Total Flux Heart (Mouse 12, dose 0.5 mg/kg) | Organ Mean Total Flux Kidney (Mouse 12, dose 0.5 mg/kg) | Organ Mean Total Flux Liver (Mouse 12, dose 0.5 mg/kg) | Organ Mean Total Flux Lung (Mouse 12, dose 0.5 mg/kg) | Organ Mean Total Flux Muscle (Mouse 12, dose 0.5 mg/kg) | Organ Mean Total Flux Pancreas (Mouse 12, dose 0.5 mg/kg) | Organ Mean Total Flux Spleen (Mouse 12, dose 0.5 mg/kg) | further results |
| --- | --- | --- | --- | --- | --- | --- | --- | --- | --- | --- | --- | --- | --- | --- | --- | --- | --- |
| CCCC/C=C\CCOC(=O)CCCCCC(=O)OCC(COC(=O)CCCCCC(=O)OCC/C=C\CCCC)(COC(=O)CCCCCC(=O)OCC/C=C\CCCC)COC(=O)CCC(CCCCCC)OC(=O)NCCN1CCCC1 (stereo not shown) [Compound 44, O7-[2,2-bis[[7-[(Z)-oct-3-enoxy]-7-oxo-heptanoyl]oxymethyl]-3-[4-(2-pyrrolidin-1-ylethylcarbamoyloxy)decanoyloxy]propyl]O1-[(Z)-oct-3-enyl]heptanedioate] | 5.6 p/s (×10^6) | 0.7 p/s (×10^6) | 1.3 p/s (×10^6) | 415.7 p/s (×10^6) | 6.5 p/s (×10^6) | 22.6 p/s (×10^6) | 3.1 p/s (×10^6) | 36.0 p/s (×10^6) |  |  |  |  |  |  |  |  |  |
| CCCCC/C=C\CCOC(=O)CCCCC(=O)OCC(COC(=O)CCCCC(=O)OCC/C=C\CCCCC)(COC(=O)CCC(CCCCCC)OC(=O)NCCN1CCCC1)COC(=O)C1CC2(C1)CC(F)(F)C2 (stereo not shown) [Compound 100, O6-[2-[(2,2-difluorospiro[3.3]heptane-6-carbonyl)oxymethyl]-2-[[6-[(Z)-non-3-enoxy]-6-oxo-hexanoyl]oxymethyl]-3-[4-(2-pyrrolidin-1-ylethylcarbamoyloxy)decanoyloxy]propyl]O1-[(Z)-non-3-enyl]hexanedioate] |  |  |  |  |  |  |  |  | 13.8 p/s (×10^6) | 0.7 p/s (×10^6) | 2.3 p/s (×10^6) | 273.0 p/s (×10^6) | 37.8 p/s (×10^6) | 4.0 p/s (×10^6) | 25.2 p/s (×10^6) | 163.7 p/s (×10^6) |  |
| CCCCC/C=C\CCOC(=O)CCCCC(=O)OCC(COC(=O)CCCCC(=O)OCC/C=C\CCCCC)(COC(=O)CCC(CCCCCC)OC(=O)NCCN1CCCC1)COC(=O)C12CCC(F)(CC1)CC2 (stereo not shown) [Compound 93, O6-[2-[(4-fluorobicyclo[2.2.2]octane-1-carbonyl)oxymethyl]-2-[[6-[(Z)-non-3-enoxy]-6-oxo-hexanoyl]oxymethyl]-3-[4-(2-pyrrolidin-1-ylethylcarbamoyloxy)decanoyloxy]propyl]O1-[(Z)-non-3-enyl]hexanedioate] |  |  |  |  |  |  |  |  | 27.8 p/s (×10^6) | 1.3 p/s (×10^6) | 3.5 p/s (×10^6) | 528.7 p/s (×10^6) | 34.3 p/s (×10^6) | 11.0 p/s (×10^6) | 25.8 p/s (×10^6) | 136.6 p/s (×10^6) |  |
| CCCCCCCC(C)OC(=O)CCCCCC(=O)OCC(COC(=O)CCCCCC(=O)OC(C)CCCCCCC)(COC(=O)CCCCCC(=O)OC(C)CCCCCCC)COC(=O)CCC(CCCCCC)OC(=O)NCCN1CCCC1 (stereo not shown) [Compound 38, O1-[2,2-bis[[7-(1-methyloctoxy)-7-oxo-heptanoyl]oxymethyl]-3-[4-(2-pyrrolidin-1-ylethylcarbamoyloxy)decanoyloxy]propyl]O7-(1-methyloctyl) heptanedioate] |  |  |  |  |  |  |  |  |  |  |  |  |  |  |  |  | Organ Mean Total Flux Femur (Mouse 6, dose 0.5 mg/kg): 9.8 p/s (×10^6); Organ Mean Total Flux Heart (Mouse 6, dose 0.5 mg/kg): 11.0 p/s (×10^6); Organ Mean Total Flux Kidney (Mouse 6, dose 0.5 mg/kg): 8.1 p/s (×10^6); Organ Mean Total Flux Liver (Mouse 6, dose 0.5 mg/kg): 6770 p/s (×10^6); Organ Mean Total Flux Lung (Mouse 6, dose 0.5 mg/kg): 33.3 p/s (×10^6); Organ Mean Total Flux Muscle (Mouse 6, dose 0.5 mg/kg): 23.5 p/s (×10^6); Organ Mean Total Flux Pancreas (Mouse 6, dose 0.5 mg/kg): 2.6 p/s (×10^6); Organ Mean Total Flux Spleen (Mouse 6, dose 0.5 mg/kg): 27.2 p/s (×10^6) |
| CCCCC/C=C\CCOC(=O)CCCCCCC(=O)OCC(COC(=O)CCCCCCC(=O)OCC/C=C\CCCCC)(COC(=O)CCCCCCC(=O)OCC/C=C\CCCCC)COC(=O)CCC(CCCCCCCC)OC(=O)NCCN1CCCC1 (stereo not shown) [Compound 27, O8-[2,2-bis[[8-[(Z)-non-3-enoxy]-8-oxooctanoyl]oxymethyl]-3-[4-(2-pyrrolidin-1-ylethylcarbamoyloxy)dodecanoyloxy]propyl]O1-[(Z)-non-3-enyl]octanedioate] | 1.1 p/s (×10^6) | 1.7 p/s (×10^6) | 1.2 p/s (×10^6) | 1441 p/s (×10^6) | 16.4 p/s (×10^6) | 2.0 p/s (×10^6) | 0.5 p/s (×10^6) | 1.0 p/s (×10^6) |  |  |  |  |  |  |  |  |  |
| CCCCC/C=C\CCOC(=O)CCCCC(=O)OCC(COC(=O)CCCCC(=O)OCC/C=C\CCCCC)(COC(=O)CCC(CCCCCC)OC(=O)NCCN1CCCC1)COC(=O)CC12CC(C1)C2 (stereo not shown) [Compound 91, O6-[2-[[2-(1-bicyclo[1.1.1]pentanyl)acetyl]oxymethyl]-2-[[6-[(Z)-non-3-enoxy]-6-oxo-hexanoyl]oxymethyl]-3-[4-(2-pyrrolidin-1ylethylcarbamoyloxy)decanoyloxy]propyl]O1-[(Z)-non-3-enyl]hexanedioate] |  |  |  |  |  |  |  |  | 15.8 p/s (×10^6) | 2.6 p/s (×10^6) | 12.3 p/s (×10^6) | 404.7 p/s (×10^6) | 26.3 p/s (×10^6) | 7.8 p/s (×10^6) | 76.4 p/s (×10^6) | 123.6 p/s (×10^6) |  |
| CCCCC/C=C\CCCOC(=O)CCCCCC(=O)OCC(COC(=O)CCCCCC(=O)OCCC/C=C\CCCCC)(COC(=O)CCCCCC(=O)OCCC/C=C\CCCCC)COC(=O)CCC(CCCCCC)OC(=O)NCCN1CCCC1 (stereo not shown) [Compound 45, O7-[2,2-bis[[7-[(Z)-dec-4-enoxy]-7-oxo-heptanoyl]oxymethyl]-3-[4-(2-pyrrolidin-1ylethylcarbamoyloxy)decanoyloxy]propyl]O1-[(Z)-dec-4-enyl]heptanedioate] | 1.0 p/s (×10^6) | 1.1 p/s (×10^6) | 0.9 p/s (×10^6) | 809.3 p/s (×10^6) | 7.2 p/s (×10^6) | 5.6 p/s (×10^6) | 0.5 p/s (×10^6) | 6.0 p/s (×10^6) |  |  |  |  |  |  |  |  |  |
| CCCCC/C=C\CCOC(=O)CCCCC(=O)OCC(COC(=O)CCCCC(=O)OCC/C=C\CCCCC)(COC(=O)CCC(CCCCCC)OC(=O)NCCN1CCCC1)COC(=O)C1CC2C(C1)C2(F)F (stereo not shown) [Compound 81, O6-[2-[(6,6-difluorobicyclo[3.1.0]hexane-3-carbonyl)oxymethyl]-2-[[6-[(Z)-non-3-enoxy]-6-oxo-hexanoyl]oxymethyl]-3-[4-(2-pyrrolidin-1-ylethylcarbamoyloxy)decanoyloxy]propyl]O1-[(Z)-non-3-enyl]hexanedioate] |  |  |  |  |  |  |  |  | 11.1 p/s (×10^6) | 1.2 p/s (×10^6) | 4.0 p/s (×10^6) | 727.0 p/s (×10^6) | 12.1 p/s (×10^6) | 5.7 p/s (×10^6) | 12.9 p/s (×10^6) | 115.9 p/s (×10^6) |  |
